In ChEMBL document CHEMBL1201862, “PubChem BioAssay data set” (2004):
The source made the active and inactive calls.

Legend:
[1] = target: Cytochrome P450 2C19 (Homo sapiens, UniProt P33261); assay: Cytochrome panel assay with activity outcomes. Panel member name: p450-cyp2c19 Compounds with AC50 equal or less than 10 uM are considered active; type: functional
[2] = target: Cytochrome P450 3A4 (Homo sapiens, UniProt P08684);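 also: CYP3A4 tested as one member of a cytochrome P450 panel screen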
[3] = viability of uninfected HEp-2 cells – cell-based, HTS, cytotoxicity control for RSV inhibitor project, dose response (AID 2410); type: functional; conditions: human respiratory syncytial virus
[4] = NIH3T3 cell viability loss – ATP luminescence, mouse fibroblasts, counter-screen, dose response (AID 2010); type: functional, cell-based; conditions: NIH3T3;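 also: cells exposed to compound for about 90 hours before reading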
[5] = Trypanosoma cruzi growth suppression in host cells – NIH3T3 host cells, beta-gal luminescence, confirmation (AID 2044); type: functional, cell-based;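 also: intracellular parasites grown in NIH/3T3 mouse fibroblasts as host cells; luminescent beta-galactosidase reporter signal from transgenic T. cruzi replicating inside host cells; inhibitors lower the luminescence signal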
[6] = target: T1, Corticotropin-releasing factor receptor 2/Corticotropin-releasing factor-binding protein (Homo sapiens, UniProt P24387+Q13324); assay: activators of CRF receptor 2 with binding protein – uHTS hits, confirmation (AID 602473); type: functional; conditions: read-out: EC50_Mean
T1 sequence (Q13324 whole entry): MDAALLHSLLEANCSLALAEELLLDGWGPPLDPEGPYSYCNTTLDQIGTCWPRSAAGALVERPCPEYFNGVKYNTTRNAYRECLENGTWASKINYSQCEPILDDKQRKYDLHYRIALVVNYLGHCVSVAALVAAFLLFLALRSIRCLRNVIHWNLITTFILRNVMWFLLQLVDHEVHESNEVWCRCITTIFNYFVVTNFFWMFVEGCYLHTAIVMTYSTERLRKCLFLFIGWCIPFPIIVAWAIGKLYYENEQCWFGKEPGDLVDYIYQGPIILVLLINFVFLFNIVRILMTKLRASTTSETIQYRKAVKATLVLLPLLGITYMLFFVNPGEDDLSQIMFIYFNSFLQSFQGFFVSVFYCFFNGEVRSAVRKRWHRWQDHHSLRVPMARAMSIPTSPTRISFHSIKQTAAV
T1 sequence (P24387 whole entry): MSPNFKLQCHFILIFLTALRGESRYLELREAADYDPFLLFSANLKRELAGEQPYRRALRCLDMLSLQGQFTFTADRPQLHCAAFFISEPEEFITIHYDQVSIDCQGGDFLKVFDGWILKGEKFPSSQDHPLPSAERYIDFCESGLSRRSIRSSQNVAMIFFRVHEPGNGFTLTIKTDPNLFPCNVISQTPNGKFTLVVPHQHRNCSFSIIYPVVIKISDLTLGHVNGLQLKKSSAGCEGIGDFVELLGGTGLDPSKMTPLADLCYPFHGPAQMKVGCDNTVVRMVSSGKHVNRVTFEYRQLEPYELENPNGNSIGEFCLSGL

[7] = test system: Streptococcus sp. 'group A'; assay: Streptococcus pyogenes SK(-)GAS viability under kanamycin – luminescence, BacTiterGlo, confirmation, counter-screen for streptokinase expression inhibitor project, dose response (AID 1900); type: functional, organism-based
[8] = test system: Streptococcus; assay: GAS UMAA2166 growth inhibition – luminescence, BacTiterGlo, counter-screen for streptokinase expression inhibitor project, dose response (AID 1915); type: functional, organism-based;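 also: potency for reduction of bacterial viability or growth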
[9] = target: T2, Streptokinase A (Streptococcus pyogenes serotype M1, UniProt P10520); assay: viability-normalized secreted streptokinase activity reduction – plasminogen activation absorbance, OD405, dose response (AID 1914); type: functional, Streptococcus pyogenes M1 GAS;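 also: secreted streptokinase activity via plasminogen activation per viability signal from cell pellet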
T2 sequence (P10520 whole entry): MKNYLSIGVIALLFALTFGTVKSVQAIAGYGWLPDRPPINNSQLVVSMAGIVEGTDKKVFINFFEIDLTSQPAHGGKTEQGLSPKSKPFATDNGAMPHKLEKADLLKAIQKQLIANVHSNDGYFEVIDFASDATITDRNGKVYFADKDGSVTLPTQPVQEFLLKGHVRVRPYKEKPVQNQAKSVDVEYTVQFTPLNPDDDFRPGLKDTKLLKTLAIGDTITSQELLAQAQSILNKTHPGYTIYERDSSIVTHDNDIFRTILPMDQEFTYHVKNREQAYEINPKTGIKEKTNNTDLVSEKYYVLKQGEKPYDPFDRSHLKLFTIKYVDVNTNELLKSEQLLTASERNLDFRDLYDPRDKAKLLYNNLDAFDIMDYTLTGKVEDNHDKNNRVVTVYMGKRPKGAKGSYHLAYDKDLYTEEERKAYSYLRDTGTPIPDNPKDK

[10] = target: Cytochrome P450 2C9 (Homo sapiens, UniProt P11712)
Cytochrome P450 2C9, sequence (P11712 whole entry): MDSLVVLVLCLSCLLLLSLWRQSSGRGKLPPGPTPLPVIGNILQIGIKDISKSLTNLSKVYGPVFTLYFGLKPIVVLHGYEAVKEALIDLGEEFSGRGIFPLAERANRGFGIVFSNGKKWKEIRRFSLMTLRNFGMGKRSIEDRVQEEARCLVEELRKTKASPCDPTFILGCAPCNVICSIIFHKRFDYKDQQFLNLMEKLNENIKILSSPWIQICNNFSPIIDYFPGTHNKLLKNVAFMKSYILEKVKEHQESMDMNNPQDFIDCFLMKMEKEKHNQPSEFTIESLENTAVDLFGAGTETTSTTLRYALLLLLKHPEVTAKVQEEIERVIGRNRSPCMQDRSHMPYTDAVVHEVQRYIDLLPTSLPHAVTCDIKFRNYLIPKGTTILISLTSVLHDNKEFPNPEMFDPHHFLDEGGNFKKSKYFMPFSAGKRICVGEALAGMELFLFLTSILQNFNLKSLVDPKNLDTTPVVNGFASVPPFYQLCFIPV

Cytochrome P450 2C19, sequence (P33261 whole entry): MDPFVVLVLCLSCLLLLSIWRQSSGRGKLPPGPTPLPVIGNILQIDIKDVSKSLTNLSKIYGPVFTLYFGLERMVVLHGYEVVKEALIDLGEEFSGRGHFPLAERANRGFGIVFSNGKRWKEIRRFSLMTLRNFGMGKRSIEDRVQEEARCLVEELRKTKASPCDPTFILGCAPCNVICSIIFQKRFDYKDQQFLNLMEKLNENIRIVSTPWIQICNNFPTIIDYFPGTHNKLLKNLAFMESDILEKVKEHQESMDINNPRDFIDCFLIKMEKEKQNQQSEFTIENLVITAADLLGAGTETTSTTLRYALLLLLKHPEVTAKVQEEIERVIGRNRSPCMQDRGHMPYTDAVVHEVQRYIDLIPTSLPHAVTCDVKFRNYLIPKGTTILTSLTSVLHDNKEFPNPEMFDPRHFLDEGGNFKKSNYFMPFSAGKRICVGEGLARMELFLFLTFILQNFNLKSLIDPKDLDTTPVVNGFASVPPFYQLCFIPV
Cytochrome P450 3A4, sequence (P08684 whole entry): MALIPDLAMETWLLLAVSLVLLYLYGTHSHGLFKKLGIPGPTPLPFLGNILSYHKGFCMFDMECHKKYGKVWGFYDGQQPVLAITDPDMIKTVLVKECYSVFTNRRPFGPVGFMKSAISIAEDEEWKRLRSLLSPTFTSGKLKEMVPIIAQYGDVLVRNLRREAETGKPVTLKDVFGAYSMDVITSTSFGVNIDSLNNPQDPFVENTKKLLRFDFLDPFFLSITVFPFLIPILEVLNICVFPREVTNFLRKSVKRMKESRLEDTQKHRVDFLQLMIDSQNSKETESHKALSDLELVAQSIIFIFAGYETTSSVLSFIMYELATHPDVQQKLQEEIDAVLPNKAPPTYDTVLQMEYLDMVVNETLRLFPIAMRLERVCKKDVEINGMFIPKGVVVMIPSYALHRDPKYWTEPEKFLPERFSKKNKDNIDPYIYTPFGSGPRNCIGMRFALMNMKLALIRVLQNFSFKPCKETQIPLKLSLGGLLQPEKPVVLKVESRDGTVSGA

NC(=O)c1csc(-c2ccc(CO)o2)n1
AC50 [1]: inconclusive

COc1ccc(C(=O)N2CCC[C@@]3(CCN(c4ccccc4)C3)C2)cc1
AC50 [2]: 7.94 µM (inconclusive)

Cc1ccc(Cn2c(C(C)Nc3nc(-c4ccc(F)cc4)cs3)nc3cc(Cl)c(Cl)cc32)cc1 (centres undefined)
CC50 [3]: 49.3 µM (active)

COc1ccc(C(CNC(=O)c2oc3ccc(Br)cc3c2C)N2CCCCC2)cc1 (centres undefined)
EC50 [4]: > 60 µM (not active)
EC50 [5]: 2.37 µM (active)

CC(C)c1csc(CN2CCC(CO)(Cc3cccc(F)c3)CC2)n1
EC50 [4]: > 60 µM (not active)
EC50 [5]: 1.09 µM (active)

CC(C)NC(=O)N(C)C[C@H]1OCc2cnnn2CCCC(=O)N([C@H](C)CO)C[C@H]1C
EC50 [6]: > 53 µM (inactive)

CCNc1nc(NCC)nc(-n2nc(C)cc2C)n1
EC50 [7]: 17.2 µM (active)
EC50 [8]: > 150 µM (not active)
EC50 [9]: > 150 µM (not active)

CC(=O)Nc1c(C)nn(-c2ccc(C)c(C)c2)c1C
AC50 ([1]; read-out: AC50): 39.8 µM (inconclusive)

CC(NC(=O)Nc1ccc(Cl)cc1)c1ccc2c(c1)OCO2 (centres undefined)
CC50 [3]: 39.5 µM (active)

CC(C)NC(=O)N1CC2(CCN(C(=O)c3ccncc3)CC2)C1
AC50 [2]: 0.0794 µM (inconclusive)

CCCc1nc2ccccc2c(=O)n1NC(=O)c1c(O)c2cccc3c2n(c1=O)CCC3
EC50 [7]: 3.78 µM (active)
EC50 [8]: 7.68 µM (active)
EC50 [9]: > 150 µM (not active)

Cc1cc(Cl)ccc1N=C(S)NCCC(c1ccccc1)c1ccccc1
EC50 [7]: 5.18 µM (active)
EC50 [8]: 30.3 µM (active)

COc1ccc(C(=O)N2CCC3(CCCN(c4ccccn4)C3)CC2)cc1
AC50 ([1]; read-out: AC50): 25.1 µM (inconclusive)

CC(=O)c1cccc(NC(=O)c2csc(-n3nc(C)cc3C(F)(F)F)n2)c1
AC50 [10]: 1 µM (inconclusive)
AC50 ([1]; read-out: AC50): 7.94 µM (inconclusive)

Cc1c(C)c(C)c2[nH]c(-c3ccc4c(c3)OCO4)nc2c1C
EC50 [4]: > 30 µM (not active)
EC50 [5]: 1.45 µM (active)

Cc1ccccc1C(=O)Nc1ccc(C(=O)NNC(=O)CCCOc2ccc(Cl)cc2Cl)cc1
AC50 ([1]; read-out: AC50): 17.8 µM (inconclusive)

CCC/C=C(\CCC)C(NS(=O)(=O)c1ccc(C(F)(F)F)cc1)c1ccc(C(=O)OC)cc1 (centres undefined)
AC50 [2]: 1 µM (inconclusive)

COC(=O)[C@@]1(Cc2ccc(OC)cc2)[C@H]2c3cc(C(=O)N4CCCC4)n(CCn4cc([N+](=O)[O-])nc4C)c3C[C@H]2CN1C(=O)c1ccccc1
AC50 [10]: 31.6 µM (inconclusive)

Cn1cccc1CC(=O)NNC(=S)NC(=O)c1ccccc1Br
EC50 [7]: 5.95 µM (active)
EC50 [8]: 137 µM (active)
EC50 [9]: > 150 µM (not active)

O=S(=O)(c1ccccc1)N1CCC2(CCN(c3ccc(-c4ccccc4)cc3)CC2)CC1
AC50 [2]: 20 µM (inconclusive)

COC(=O)c1cc(C(=O)Nc2nc3ccccc3[nH]2)cc([N+](=O)[O-])c1
EC50 [7]: 3.94 µM (active)
EC50 [8]: > 150 µM (not active)
EC50 [9]: > 150 µM (not active)

COC(=O)C1(C)C=C2C(=C(c3ccccc3)C(=O)C2C)CN1 (centres undefined)
AC50 ([1]; read-out: AC50): 39.8 µM (inconclusive)

CCN(CC)c1nc(-c2ccccc2)ncc1S(=O)(=O)c1ccc(C)cc1
EC50 [4]: > 60 µM (not active)
EC50 [5]: 2.65 µM (active)

COc1ccc(-c2nc3cnc(Nc4cccc(OC)c4)nc3n(C[C@H]3CCCO3)c2=O)cc1
AC50 [2]: 5.01 µM (inconclusive)

CCC(c1nnnn1C(C)(C)C)N(Cc1cccs1)Cc1cc2cc(C)c(C)cc2n2nnnc12 (centres undefined)
EC50 [4]: > 60 µM (not active)
EC50 [5]: 1.02 µM (active)

CC1CN(S(=O)(=O)c2cccc(C(=O)Nc3cc(Cl)ccc3N3CCOCC3)c2)CC(C)O1 (centres undefined)
CC50 [3]: 43 µM (active)

Cc1cccc(CNc2ncnc3ccc(-c4c(C)noc4C)cc23)c1
AC50 [10]: 1 µM (inconclusive)

COc1ccc2nc(NC(C)=O)sc2c1
AC50 ([1]; read-out: AC50): 39.8 µM (inconclusive)
AC50 [2]: 28.2 µM (inconclusive)

CC(/C=C/c1ccccc1)=N\NC(=O)C1CC1(C)c1ccccc1 (centres undefined)
CC50 [3]: 32 µM (active)

CCC1CCCCN1c1nc(-c2ccncc2)nc2ccccc12 (centres undefined)
EC50 [4]: 6.4 µM (active)
EC50 [5]: 0.521 µM (active)

CC[C@@H](CO)Nc1nc(NCc2ccccc2)c2ncn(C(C)C)c2n1 [(S)-ROSCOVITINE]
AC50 [10]: 0.316 µM (inconclusive)

CC1(C)CC(O)CC(C)(C)N1CC(O)COCCOc1ccc(Br)cc1 (centres undefined)
AC50 [1]: inconclusive

Clc1ccc(-c2[nH]nc3c2CCC3)c(Cl)c1
EC50 [7]: 16.8 µM (active)
EC50 [8]: > 150 µM (not active)

CCCCC(=O)NC(=S)NNC(=O)CCc1ccccc1
EC50 [7]: 3.35 µM (active)
EC50 [6]: 4.32 µM (active)
EC50 [8]: 8.5 µM (active)

CCOC(=O)c1nn(-c2ccccc2Cl)c(=O)cc1OCC(=O)Nc1cccc(OC)c1
EC50 [7]: 31.2 µM (active)
EC50 [8]: > 150 µM (not active)
EC50 [9]: > 150 µM (not active)

CCOc1ccc(NS(=O)(=O)c2ccc(C(=O)N3CC(C)OC(C)C3)cc2)cc1 (centres undefined)
EC50 [6]: 7.94 µM (active)

CCNC(=S)N/N=C/c1cccc(OCc2c(F)cccc2Cl)c1
EC50 [4]: > 30 µM (not active)
EC50 [5]: 1.15 µM (active)

Clc1ccc(-c2n[nH]c3c2CCC3)c(Cl)c1
EC50 [9]: > 150 µM (not active)

CCN1CCCc2cc(CN(CCN3CCOCC3)C(S)=Nc3ccc(OC)c(Cl)c3)ccc21
EC50 [4]: > 60 µM (not active)
EC50 [5]: 1.63 µM (active)

O=C(c1ccco1)N1CCN(C(=O)c2nn3cccnc3c2Cl)CC1
AC50 [1]: inconclusive

O=S(=O)(c1ccccc1)N1CCC2(CCN(c3ccccc3)CC2)CC1
AC50 [10]: 39.8 µM (inconclusive)
AC50 ([1]; read-out: AC50): 10 µM (inconclusive)
AC50 [2]: 2.51 µM (inconclusive)

CN(C)c1ccc(-c2cncnc2NCCc2cnc[nH]2)cc1
AC50 [10]: 0.501 µM (inconclusive)

COc1ccc(Nc2nnc(-c3ccc(O)cc3)c3ccccc23)cc1
EC50 [4]: > 60 µM (not active)
EC50 [5]: 3.48 µM (active)

CCCCNC1=N/C(=C\c2ccco2)C(=O)N1c1ccccc1
AC50 [10]: 4.47 µM (inconclusive)
AC50 ([1]; read-out: AC50): 39.8 µM (inconclusive)

CCCCNC(=O)NS(=O)(=O)c1ccc(C(=O)OC(C)C)o1
AC50 ([1]; read-out: AC50): 39.8 µM (inconclusive)

O=c1c(CCc2ccccc2)nc2cnc(Oc3ccccc3)nc2n1C1CC1
AC50 [2]: 15.8 µM (inconclusive)

O=C(O)CC[C@@H](NC(=O)c1ccccc1C(=O)O)C(=O)O
AC50 ([1]; read-out: AC50): 0.0251 µM (inconclusive)

C=CC[n+]1c(-c2ccc(C)cc2)csc1Nc1c(C)n(C)n(-c2ccccc2)c1=O
EC50 [4]: > 60 µM (not active)
EC50 [5]: 4.99 µM (active)

CN(c1ccccc1)S(=O)(=O)c1ccc(C(=O)Nc2ccncc2)cc1
EC50 [4]: > 60 µM (not active)
EC50 [5]: 1.18 µM (active)

CC[C@@H](c1ccccc1)n1c(=O)n2n(c1=O)[C@H]1[C@H](O)[C@H]3O[C@@H]3/C(=N/OCc3ccccc3)[C@@H]1CC2
AC50 [2]: 5.01 µM (inconclusive)

CCOc1cc(CNc2ccc3c(c2)CCC3)ccc1OC
EC50 [7]: > 150 µM (not active)
EC50 [8]: > 150 µM (not active)
EC50 [9]: > 150 µM (not active)

CC(C)(C)c1nc(SCC(=O)Nc2ccc(N3CCOCC3)cc2)c2ccccc2n1
AC50 [2]: 1 µM (inconclusive)

O=C(NNc1nc(-c2ccc(F)cc2)cs1)c1ccccc1
EC50 [7]: 0.831 µM (active)
EC50 [8]: > 150 µM (not active)
EC50 [9]: > 150 µM (not active)

C[C@]12C=CC(=O)C=C1CC[C@@H]1[C@H]3C[C@@H](O)[C@](O)(C(=O)CO)[C@@]3(C)C[C@H](O)[C@]12F
AC50 [10]: 15.8 µM (inconclusive)

CCCc1nnc(SCC(=O)N2CCCCC2)n1CC1CCCO1 (centres undefined)
AC50 ([1]; read-out: AC50): 17.8 µM (inconclusive)
